The structures appear in SMILES notation. Counter-ions that a name gives are not always drawn.

Experimental findings from US20250320228A1, “PYRIDO[3,2-D]PYRIMIDINES AS HPK1 INHIBITORS” (Merck Patent GmbH, priority 2022, published 2025) are described below.

The target in assay [1] is full-length human HPK1 (MAP4K1) (Homo sapiens (Human), UniProt Q92918). The assay can be described thus: HPK1 kinase assay (biochemical, ADP-Glo). The note with it: GST-HPK1 3.2 nM, 10 μM ATP, MBP substrate, ADP-Glo; read-out: HPK1 enzymatic IC50. From the text: HPK1 kinase assay (Biochemical assay).
Chain of full-length human HPK1 (MAP4K1) (Q92918 whole entry, the tested form may be a part): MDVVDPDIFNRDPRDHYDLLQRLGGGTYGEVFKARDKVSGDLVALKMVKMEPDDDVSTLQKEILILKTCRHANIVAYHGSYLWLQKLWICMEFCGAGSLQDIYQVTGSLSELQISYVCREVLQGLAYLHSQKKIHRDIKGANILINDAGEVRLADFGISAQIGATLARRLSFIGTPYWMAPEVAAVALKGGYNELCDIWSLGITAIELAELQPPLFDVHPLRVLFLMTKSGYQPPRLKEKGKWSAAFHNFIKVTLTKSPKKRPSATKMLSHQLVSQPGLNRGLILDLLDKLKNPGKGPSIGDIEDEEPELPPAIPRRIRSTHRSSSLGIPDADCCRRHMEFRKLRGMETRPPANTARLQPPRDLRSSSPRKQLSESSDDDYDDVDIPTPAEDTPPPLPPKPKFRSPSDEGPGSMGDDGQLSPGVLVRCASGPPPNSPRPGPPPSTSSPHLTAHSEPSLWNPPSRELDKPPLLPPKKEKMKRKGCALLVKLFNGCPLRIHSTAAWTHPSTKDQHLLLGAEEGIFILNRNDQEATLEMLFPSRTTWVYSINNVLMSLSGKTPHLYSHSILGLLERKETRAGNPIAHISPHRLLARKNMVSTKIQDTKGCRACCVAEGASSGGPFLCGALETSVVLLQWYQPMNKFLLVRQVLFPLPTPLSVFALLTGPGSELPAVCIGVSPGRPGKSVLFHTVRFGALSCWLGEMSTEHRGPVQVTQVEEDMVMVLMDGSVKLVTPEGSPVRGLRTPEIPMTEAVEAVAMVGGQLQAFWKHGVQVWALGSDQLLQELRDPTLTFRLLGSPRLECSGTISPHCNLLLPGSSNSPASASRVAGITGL
A recombinant fusion protein consisting of full-length human HPK1 (MAP4K1) with an N-terminal Glutatione S-transferase (GST) tag was produced in insect cells Sf21 using the baculovirus expression system. GST-HPK1 protein was purified from cell lysates by glutathione Sepharose affinity chromatography. The assay is run in three continuous steps: 1) the HPK1 enzymatic kinase reaction, 2) an ATP depletion, and 3) the ADP detection, the steps 2 and 3 are performed with ADP-Glo™ Kinase Assay kit from Promega (V9101). Test compounds were prepared by 10-point serial dilution in dimethyl sulfoxide (DMSO) and 100 nL of each dilution was spotted onto a 384-well Optiplate (Perkin Elmer and Cat #6007299) by Labcyte Echo. 5 μL kinase reaction buffer (0.02% Brij-35, 2 mM DTT, 50 mM HEPES pH 7.5, MgCl2 10 mM, BSA 0.01% and β-glycerophosphate 12.5 mM) containing HPK1 (3.2 nM) enzyme was transferred to each well and incubated for 15 minutes at room temperature at 60% humidity. The enzymatic reaction was started by adding 5 μl of Start-Mix (10 μM ATP and 3.235 μM MBP). After 120 minutes, the reaction was stopped by adding 5 μL of ADP-Glo reagent (Promega, V9101) and incubating for 40 min. in the dark at 23° C. To determine the level of ADP, 10 μl ADP-Glo Detection solution was added and incubated for 1 hour at 23° C. in the dark. The plate was transferred to a Perkin Elmer EnVision (2104 Multilabel Reader) for luminescence detection and percent inhibition activity and IC50 value were determined using Genedata Screener.

Assay [2] deals with HPK1 pSLP76 (Ser376). The assay can be described thus: Cellular assay phospho-SLP-76 (Ser376). The class given is cell-based, human. The note with it: SLP76 Ser376 phosphorylation after αCD3/αCD28 stimulation; Jurkat (human) or EL-4 (mouse) cells, table does not say which; read-out: HPK1 pSLP76 IC50. How it is done:
Cellular Assay—Phospho-SLP-76 (Ser376).
Inhibition of HPK1 enzymatic activity in cells was determined by detection of SLP76 phosphorylation at Ser376 residue in lysate from Jurkat (human) and EL-4 (mouse) cells. Jurkat and EL-4 cells express both HPK1 and SLP76 naturally. All cells were cultured in RPMI 1640 media containing 10% heat inactivated fetal bovine serum (FBS) and 1× Penicillin-Streptomycin. In either Jurkat or El-4 assay, cells were pre-incubated with test compounds prior to T cell stimulation by respective αCD3/αCD28 Dynabeads™. For detection, plates were read on the Envision and percent inhibition and IC50 were determined by Smart fit in Genedata Analyzer.
For Jurkat cells: 35 μL cell suspension were dispensed at a density of 30,000 cells/well in 384-well plates containing HBSS (Gibco, 14025076)+0.1% BSA). 10-point logarithmic serial dilution of test compounds in DMSO were prepared by a Hamilton automated liquid handling robot and 35 nL was transferred into each well by an Echo liquid handler. After 60 min. pre-incubation, the cells were stimulated by adding 5 μL human T activator αCD3/αCD28 Dynabeads™ (Gibco, 11132D) at 1.2×107 beads/ml for 15 minutes at 37° C. Detection of Ser376 phosphorylation status was accomplished by first adding 10 μL of 5× AlphaLISA lysis buffer (Perkin Elmer, ALSU-PSLP-A500) to each well of the cell plate using a Multidrop Combi (5840300), followed by 20 minutes shaking. 10 μL cell lysate from each treatment were then transferred to a white 384-well plate (Corning 3572) and incubated with AlphaLISA acceptor beads for one hour (AlphaLISA SureFire Ultra p-SLP76 (Ser376), Perkin Elmer, ALSU-PSLP-A500), and donor beads for additional 2 hours at room temperature in the dark. […]

Regarding `CS(=O)(=O)Cc1ccc(-c2cc(C(N)=O)c3ncnc(N[C@H]4CCCNC4)c3n2)cc1` [Example 54, (S)-6-(4-((methylsulfonyl)methyl)phenyl)-4-(piperidin-3-ylamino)pyrido[3,2-d]pyrimidine-8-carboxamide], the IC50 in assay [1] was below 0.1 µM; in assay [2] it was above 1 µM.

On to `NC(=O)c1cc(-c2ccc(CN3CCOC(F)(F)C3)cc2)nc2c(N[C@H]3CCCNC3)ncnc12` [Example 70, 6-[4-[(2,2-difluoromorpholin-4-yl)methyl]phenyl]-4-[(3S)-piperidin-3-ylamino]pyrido[3,2-d]pyrimidine-8-carboxamide], for which the IC50 in assay [1] is below 0.1 µM; in assay [2], 0.5 to 1 µM.

In the case of `NC(=O)c1cc(-c2ccc(OCC3(O)CCCC3)cc2)nc2c(N[C@H]3CCCNC3)ncnc12` [Example 41, (S)-6-(4-((1-hydroxycyclopentyl)methoxy)phenyl)-4-(piperidin-3-ylamino)pyrido[3,2-d]pyrimidine-8-carboxamide], the IC50 in assay [1] was below 0.1 µM; in assay [2] it was below 0.5 µM.

`NC(=O)c1cc(-c2cnn(C3CC3)c2)nc2c(N[C@@H]3CNC[C@@H](F)C3)ncnc12` [Example 36, 6-(1-cyclopropyl-1H-pyrazol-4-yl)-4-(((3S,5S)-5-fluoropiperidin-3-yl)amino)pyrido[3,2-d]pyrimidine-8-carboxamide]: the figures for the half-maximal inhibitory concentration (IC50) in assay [1] and in assay [2] were below 0.1 µM and 0.5 to 1 µM, respectively.

As for `COCCOc1ccc(-c2cc(C(N)=O)c3ncnc(N[C@H]4CCCNC4)c3n2)c(C#N)c1` [Example 46, (S)-6-(2-cyano-4-(2-methoxyethoxy)phenyl)-4-(piperidin-3-ylamino)pyrido[3,2-d]pyrimidine-8-carboxamide], the IC50 was below 0.1 µM in assay [1] and above 1 µM in assay [2].

In the case of `COC(C)(C)COc1ccc(-c2cc(C(N)=O)c3ncnc(N[C@H]4CCCNC4)c3n2)cc1` [Example 61, 6-[4-(2-methoxy-2-methylpropoxy)phenyl]-4-[(3S)-piperidin-3-ylamino]pyrido[3,2-d]pyrimidine-8-carboxamide], the IC50 in assay [1] was below 0.1 µM; in assay [2] it was below 0.5 µM.

Regarding `Cn1cc(-c2cc(C(N)=O)c3ncnc(N[C@H]4CCCNC4)c3n2)cc1C#N` [Example 83, 6-(5-cyano-1-methyl-1H-pyrrol-3-yl)-4-{[(3S)-piperidin-3-yl]amino}pyrido[3,2-d]pyrimidine-8-carboxamide], the figures for the IC50 in assay [1] and in assay [2] were below 0.1 µM and below 0.5 µM, respectively.

For `C[C@H]1CN(Cc2ccc(-c3cc(C(N)=O)c4ncnc(N[C@H]5CCCNC5)c4n3)cc2)CCO1` [Example 27, 6-(4-[[(2S)-2-methylmorpholin-4-yl]methyl]phenyl)-4-[(3S)-piperidin-3-ylamino]pyrido [3,2-d]pyrimidine-8 carboxamide dihydrochloride], the IC50 in assay [1] was below 0.1 µM; in assay [2], below 0.5 µM.

With `NC(=O)c1cc(-c2ccc(OC(F)(F)F)cc2)nc2c(N[C@H]3CCCNC3)ncnc12` [Example 31, 4-[(3S)-piperidin-3-ylamino]-6-[4-(trifluoromethoxy)phenyl]pyrido[3,2-d]pyrimidine-8-carboxamide], the IC50 was below 0.1 µM in assay [1] and 0.5 to 1 µM in assay [2].

Turning to `NC(=O)c1cc(-c2cc(F)c(OCC3(O)CCC3)c(F)c2)nc2c(N[C@@H]3CNC[C@@H](F)C3)ncnc12` [Example 33, 6-(3,5-difluoro-4-((1-hydroxycyclobutyl)methoxy)phenyl)-4-(((3S,5S)-5-fluoropiperidin-3-yl)amino)pyrido[3,2-d]pyrimidine-8-carboxamide], the values for the IC50 in assay [1] and in assay [2] were below 0.1 µM and below 0.5 µM, respectively.

For `NC(=O)c1cc(-c2cnn(C3CCOCC3)c2)nc2c(N[C@@H]3CNC[C@@H](F)C3)ncnc12` [Example 4, 4-(((3S,5S)-5-fluoropiperidin-3-yl)amino)-6-(1-(tetrahydro-2H-pyran-4-yl)-1H-pyrazol-4-yl)pyrido[3,2-d]pyrimidine-8-carboxamide], the concentration for half-maximal inhibition (IC50) in assay [1] is below 0.1 µM; in assay [2], 0.5 to 1 µM.

For `NC(=O)c1cc(-c2cc(F)c(OCC3(O)CCOCC3)c(F)c2)nc2c(N[C@@H]3CNC[C@@H](F)C3)ncnc12` [Example 37, 6-(3,5-difluoro-4-((4-hydroxytetrahydro-2H-pyran-4-yl)methoxy)phenyl)-4-(((3S,5S)-5-fluoropiperidin-3-yl)amino)pyrido[3,2-d]pyrimidine-8-carboxamide], the results for the IC50 in assay [1] and in assay [2] were below 0.1 µM and below 0.5 µM, respectively.

Turning to `CN1CCN(c2ccc(-c3cc(C(N)=O)c4ncnc(N[C@H]5CCCNC5)c4n3)cn2)CC1` [Example 59, 6-[6-(4-methylpiperazin-1-yl)pyridin-3-yl]-4-[(3S)-piperidin-3-ylamino]pyrido[3,2-d]pyrimidine-8-carboxamide], the results for the IC50 in assay [1] and in assay [2] were below 0.1 µM and below 0.5 µM, respectively.

Consider `NC(=O)c1cc(-c2ccc(CN3C4CCC3COC4)cc2)nc2c(N[C@H]3CCCNC3)ncnc12` [Example 66, 6-(4-[3-oxa-8-azabicyclo [3.2.1]octan-8-ylmethyl]phenyl)-4-[(3S)-piperidin-3-ylamino]pyrido[3,2-d]pyrimidine-8-carboxamide], for which the IC50 in assay [1] was below 0.1 µM; in assay [2], below 0.5 µM.

With `NC(=O)c1cc(-c2ccc(OCCCN3CCOCC3)cc2)nc2c(N[C@H]3CCCNC3)ncnc12` [Example 52, (S)-6-(4-(3-morpholinopropoxy)phenyl)-4-(piperidin-3-ylamino)pyrido[3,2-d]pyrimidine-8-carboxamide], the IC50 in assay [1] is below 0.1 µM; in assay [2], below 0.5 µM.

Turning to `COCCOc1ccc(-c2cc(C(N)=O)c3ncnc(N[C@H]4CNCC[C@@H]4F)c3n2)cc1` [Example 49, 4-(((3S,4S)-4-fluoropiperidin-3-yl)amino)-6-(4-(2-methoxyethoxy)phenyl)pyrido[3,2-d]pyrimidine-8-carboxamide], the IC50 in assay [1] and in assay [2] was above 1 µM throughout.

Turning to `C[C@@H]1CN(Cc2ccc(-c3cc(C(N)=O)c4ncnc(N[C@H]5CCCNC5)c4n3)cc2)CCO1` [Example 69, 6-(4-[[(2R)-2-methylmorpholin-4-yl]methyl]phenyl)-4-[(3S)-piperidin-3-ylamino]pyrido[3,2-d]pyrimidine-8-carboxamide dihydrochloride], the IC50 is below 0.1 µM in assay [1] and above 1 µM in assay [2].

With `CC(C)(O)COc1ccc(-c2cc(C(N)=O)c3ncnc(N[C@@H]4CNCC[C@@H]4F)c3n2)cc1` [Example 38, 4-(((3R,4S)-4-fluoropiperidin-3-yl)amino)-6-(4-(2-hydroxy-2-methylpropoxy)phenyl)pyrido[3,2-d]pyrimidine-8-carboxamide], the IC50 in assay [1] is below 0.1 µM; in assay [2] it was below 0.5 µM.

On to `Cc1nn(C)cc1-c1cc(C(N)=O)c2ncnc(N[C@@H]3CNC[C@@H](F)C3)c2n1` [Example 3, 6-(1,3-dimethyl-1H-pyrazol-4-yl)-4-(((3S,5S)-5-fluoropiperidin-3-yl)amino)pyrido[3,2-d]pyrimidine-8-carboxamide], for which the IC50 in assay [1] is below 0.1 µM; in assay [2], below 0.5 µM.

With `NC(=O)c1cc(-c2ccc(C3(O)CC3)cc2)nc2c(N[C@H]3CCCNC3)ncnc12` [Example 58, 6-[4-(1-hydroxycyclopropyl)phenyl]-4-[(3S)-piperidin-3-ylamino]pyrido[3,2-d]pyrimidine-8-carboxamide], the values for the IC50 in assay [1] and in assay [2] were below 0.1 µM and below 0.5 µM, respectively.
